Results taken from ChEMBL document CHEMBL1152394, “Antiproliferative bistramides from Trididemnum cyclops from Madagascar (1)” (J Nat Prod, 2009).

Assays:
A2780 [1] = experiment: Ratio of IC50 for endothelial cells to IC50 for human A2780 cells
A2780 [2] = experiment: Ratio of IC50 for human KB cells to IC50 for human A2780 cells; format: functional
KB = experiment: Antiproliferative activity against human KB cells; format: functional, cell-based
A2780 [3] = experiment: Antiproliferative activity against human A2780 cells; format: functional, cell-based
[4] = Antiproliferative activity against endothelial cells; format: cell-based; details: Endothelial cell
P388 [5] = experiment: Antiproliferative activity against mouse P388 cells; format: functional, cell-based
P388 [6] = experiment: Ratio of IC50 for mouse P388 cells to IC50 for human A2780 cells; format: functional

SMILES	Ratio IC50 (A2780 [1])	Ratio IC50 (A2780 [2])	IC50 (KB) [nM]	IC50 (A2780 [3]) [nM]	IC50 [4] [nM]	IC50 (P388 [5]) [nM]	Ratio IC50 (P388 [6])
C/C=C/C(O)C/C=C/C[C@H](C)[C@@H](O)CC(=O)NC[C@H](O)[C@H](C)C(=O)NCCC[C@H]1O[C@@]2(CCC[C@@H](CC[C@H](C)/C=C(\C)C(C)=O)O2)CC[C@@H]1C (some centres undefined)	10	10	45	340	22	20	10
C/C=C/C(=O)C[C@H]1CC[C@H](C)[C@H](CC(=O)NC[C@H](O)[C@H](C)C(=O)NCCC[C@H]2O[C@@]3(CCC[C@H](CC[C@H](C)/C=C(\C)[C@H](C)O)O3)CC[C@@H]2C)O1 [BISTRAMIDE A]	10	10	45	260	22	20	10
